In patent US10858335B2 (Rigel Pharmaceuticals, Inc., priority 2014, dated 2020):
Counter-ions that a name gives are not always drawn.

tested on: GDF8 signaling (p-SMAD-3 (Ser423/425)); assay: AlphaScreen SureFire SMAD3 (p-Ser423/425) assay, GDF8-stimulated cells (GDF pSMAD); assay type: cell-based; details: Mus musculus, MPC-11, MPC11; GDF8-stimulated; p-SMAD3 AlphaScreen; read-out: GDF pSMAD (MPC11) (inhibition of GDF8 signaling)

Row | SMILES | IC50
1 | COc1cc(NC(=O)c2cnc3ccc(-c4cccnc4-c4cccc(C5CC5)c4)cn23)cc(OC)c1OC [compound 575, 6-(2-(3-Cyclopropylphenyl)pyridin-3-yl)-N-(3,4,5-trimethoxyphenyl)imidazo[1,2-a]pyridine-3-carboxamide] | 1170 nM
2 | COc1cc(NC(=O)c2cnc3ccc(-c4cccnc4-c4cccc(C(F)(F)F)c4)cn23)cc(OC)c1OC [compound 576, 6-(2-(3-(Trifluoromethyl)phenyl)pyridin-3-yl)-N-(3,4,5-trimethoxyphenyl)imidazo[1,2-a]pyridine-3-carboxamide] | 3690 nM
3 | COc1cc(-c2cnc3ccc(-c4cccnc4-c4cccc(C)c4)cn23)cc(OC)c1OC [compound 578, 6-(2-(m-Tolyl)pyridin-3-yl)-3-(3,4,5-trimethoxyphenyl)imidazo[1,2-a]pyridine] | 2230 nM
4 | Cc1cc(-c2ncccc2-c2ccc3ncc(C(=O)O)n3c2)ccc1F [compound 579, 6-(2-(4-Fluoro-3-methylphenyl)pyridin-3-yl)imidazo[1,2-a]pyridine-3-carboxylic acid] | 12400 nM
5 | Cc1cc(-c2ncccc2-c2ccc3ncc(C(=O)N4CCOCC4)n3c2)ccc1F [compound 580, (6-(2-(4-Fluoro-3-methylphenyl)pyridin-3-yl)imidazo[1,2-a]pyridin-3-yl)(morpholino)methanone] | 8460 nM
6 | Cc1cc(-c2ncccc2-c2ccc3ncc(C(=O)N4CCN(C)CC4)n3c2)ccc1F [compound 581, (6-(2-(4-Fluoro-3-methylphenyl)pyridin-3-yl)imidazo[1,2-a]pyridin-3-yl)(4-methylpiperazin-1-yl)methanone] | 6310 nM
7 | COc1ccc(NC(=O)c2cnc3ccc(-c4cccnc4-c4ccc(F)c(C)c4)cn23)cc1OC [compound 582, N-(3,4-Dimethoxyphenyl)-6-(2-(4-fluoro-3-methylphenyl)pyridin-3-yl)imidazo[1,2-a]pyridine-3-carboxamide] | 494 nM
8 | CCCNC(=O)c1cnc2ccc(-c3cccnc3-c3ccc(F)c(C)c3)cn12 [compound 583, 6-(2-(4-Fluoro-3-methylphenyl)pyridin-3-yl)-N-propylimidazo[1,2-a]pyridine-3-carboxamide] | 518 nM
9 | CNC(=O)c1cnc2ccc(-c3cccnc3-c3ccc(F)c(C)c3)cn12 [compound 584, 6-(2-(4-Fluoro-3-methylphenyl)pyridin-3-yl)-N-methylimidazo[1,2-a]pyridine-3-carboxamide] | 96.2 nM
10 | Cc1cc(-c2ncccc2-c2ccc3ncc(C(=O)NCCN4CCOCC4)n3c2)ccc1F [compound 585, 6-(2-(4-Fluoro-3-methylphenyl)pyridin-3-yl)-N-(2-morpholinoethyl)imidazo[1,2-a]pyridine-3-carboxamide] | 510 nM
11 | CC(=O)c1cnc2ccc(-c3cccnc3-c3ccc(F)c(C)c3)cn12 [compound 586, 1-(6-(2-(4-Fluoro-3-methylphenyl)pyridin-3-yl)imidazo[1,2-a]pyridin-3-yl)ethan-1-one] | 617 nM
12 | CC(=O)c1cnc2ccc(-c3cccnc3-c3cccc(C)c3)cn12 [compound 587, 1-(6-(2-(m-Tolyl)pyridin-3-yl)imidazo[1,2-a]pyridin-3-yl)ethan-1-one] | 366 nM
13 | CC(=O)c1cnc2ccc(-c3cccnc3-c3cccc(C4CC4)c3)cn12 [compound 588, 1-(6-(2-(3-Cyclopropylphenyl)pyridin-3-yl)imidazo[1,2-a]pyridin-3-yl)ethan-1-one] | 316 nM
14 | CC(=O)c1cnc2ccc(-c3cccnc3-c3cccc(C(F)(F)F)c3)cn12 [compound 589, 1-(6-(2-(3-(Trifluoromethyl)phenyl)pyridin-3-yl)imidazo[1,2-a]pyridin-3-yl)ethan-1-one] | 1220 nM
15 | Cc1cc(-c2ncccc2-c2ccc3ncc(C(=O)NCCN4CCN(C)CC4)n3c2)ccc1F [compound 590, 6-(2-(4-Fluoro-3-methylphenyl)pyridin-3-yl)-N-(2-(4-methylpiperazin-1-yl)ethyl)imidazo[1,2-a]pyridine-3-carboxamide] | 514 nM
16 | Cc1cc(-c2ncccc2-c2ccc3ncc(C(=O)NCCCN4CCN(C)CC4)n3c2)ccc1F [compound 591, 6-(2-(4-Fluoro-3-methylphenyl)pyridin-3-yl)-N-(3-(4-methylpiperazin-1-yl)propyl)imidazo[1,2-a]pyridine-3-carboxamide] | 333 nM
17 | Cc1cc(-c2ncccc2-c2ccc3ncc(C(=O)NC4CCN(C)CC4)n3c2)ccc1F [compound 592, 6-(2-(4-Fluoro-3-methylphenyl)pyridin-3-yl)-N-(1-methylpiperidin-4-yl)imidazo[1,2-a]pyridine-3-carboxamide] | 205 nM
18 | Cc1cc(-c2ncccc2-c2ccc3ncc(C(=O)NC4CCOCC4)n3c2)ccc1F [compound 593, 6-(2-(4-Fluoro-3-methylphenyl)pyridin-3-yl)-N-(tetrahydro-2H-pyran-4-yl)imidazo[1,2-a]pyridine-3-carboxamide] | 1860 nM
19 | Cc1cc(-c2ncccc2-c2ccn3cncc3c2)ccc1F [compound 594, 7-(2-(4-Fluoro-3-methylphenyl)pyridin-3-yl)imidazo[1,5-a]pyridine] | 570 nM

Row | SMILES | IC50
20 | Cc1cccc(-c2ncccc2-c2ccn3cncc3c2)c1 [compound 595, 7-(2-(m-Tolyl)pyridin-3-yl)imidazo[1,5-a]pyridine] | 1160 nM
21 | c1cc(-c2ncccc2-c2ccn3cncc3c2)cc(C2CC2)c1 [compound 596, 7-(2-(3-Cyclopropylphenyl)pyridin-3-yl)imidazo[1,5-a]pyridine] | 204 nM
22 | FC(F)(F)c1cccc(-c2ncccc2-c2ccn3cncc3c2)c1 [compound 597, 7-(2-(3-(Trifluoromethyl)phenyl)pyridin-3-yl)imidazo[1,5-a]pyridine] | 837 nM
23 | Cc1cc(-c2ncccc2-c2ccc3ncc(C(C)(C)O)n3c2)ccc1F [compound 599, 2-(6-(2-(4-Fluoro-3-methylphenyl)pyridin-3-yl)imidazo[1,2-a]pyridin-3-yl)propan-2-ol] | 3880 nM
24 | [2H]C([2H])([2H])c1cccc(-c2ncccc2-c2ccc3nccn3c2)c1 [compound 600, 6-(2-(3-(Methyl-d3)phenyl)pyridin-3-yl)imidazo[1,2-a]pyridine] | 179 nM
25 | [2H]C([2H])([2H])c1cccc(-c2ncccc2-c2ccc3ncc(C#N)n3c2)c1 [compound 601, 6-(2-(3-(Methyl-d3)phenyl)pyridin-3-yl)imidazo[1,2-a]pyridine-3-carbonitrile] | 141 nM
26 | [2H]C([2H])([2H])c1cccc(-c2ncccc2-c2ccn3nccc3n2)c1 [compound 602, 5-(2-(3-(Methyl-d3)phenyl)pyridin-3-yl)pyrazolo[1,5-a]pyrimidine] | 68.1 nM
27 | [2H]C([2H])([2H])c1cccc(-c2ncccc2-c2ccc3ncsc3c2)c1 [compound 603, 6-(2-(3-(Methyl-d3)phenyl)pyridin-3-yl)benzo[d]thiazole] | 109 nM
28 | [2H]C([2H])([2H])c1cccc(-c2ncccc2-c2ccn3cncc3c2)c1 [compound 604, 7-(2-(3-(Methyl-d3)phenyl)pyridin-3-yl)imidazo[1,5-a]pyridine] | 8520 nM
29 | [2H]C([2H])([2H])c1cccc(-c2ncccc2-c2ccc3nccnc3c2)c1 [compound 605, 6-(2-(3-(Methyl-d3)phenyl)pyridin-3-yl)quinoxaline] | 7940 nM
30 | Cc1cc(-c2ncccc2-c2ccc3ncc(C(=O)NCCN(C)C)n3c2)ccc1F [compound 607, N-(2-(Dimethylamino)ethyl)-6-(2-(4-fluoro-3-methylphenyl)pyridin-3-yl)imidazo[1,2-a]pyridine-3-carboxamide] | 705 nM
31 | Cc1cc(-c2ncccc2-c2ccc3ncc(C(=O)NCCCN(C)C)n3c2)ccc1F [compound 608, N-(3-(Dimethylamino)propyl)-6-(2-(4-fluoro-3-methylphenyl)pyridin-3-yl)imidazo[1,2-a]pyridine-3-carboxamide] | 326 nM
32 | Cc1cc(-c2ncccc2-c2ccc3ncc(C(=O)NCCCN4CCOCC4)n3c2)ccc1F [compound 609, 6-(2-(4-Fluoro-3-methylphenyl)pyridin-3-yl)-N-(3-morpholinopropyl)imidazo[1,2-a]pyridine-3-carboxamide] | 319 nM
33 | Cc1cc(-c2ncccc2-c2ccc3ncc(C(=O)NCCN4CCCC4)n3c2)ccc1F [compound 610, 6-(2-(4-Fluoro-3-methylphenyl)pyridin-3-yl)-N-(2-(pyrrolidin-1-yl)ethyl)imidazo[1,2-a]pyridine-3-carboxamide] | 648 nM
34 | Cc1cc(-c2ncccc2-c2ccc3ncc(C(=O)NCCCN4CCCCC4)n3c2)ccc1F [compound 611, 6-(2-(4-Fluoro-3-methylphenyl)pyridin-3-yl)-N-(3-(piperidin-1-yl)propyl)imidazo[1,2-a]pyridine-3-carboxamide] | 114 nM
35 | Cc1cc(-c2ncccc2-c2ccc3ncc(C(=O)NCCCN4CCCC4=O)n3c2)ccc1F [compound 612, 6-(2-(4-Fluoro-3-methylphenyl)pyridin-3-yl)-N-(3-(2-oxopyrrolidin-1-yl)propyl)imidazo[1,2-a]pyridine-3-carboxamide] | 408 nM
36 | Cc1cc(-c2ncccc2-c2ccc3ncc(C(=O)NCC(O)CO)n3c2)ccc1F (centres unmarked) [compound 613, N-(2,3-Dihydroxypropyl)-6-(2-(4-fluoro-3-methylphenyl)pyridin-3-yl)imidazo[1,2-a]pyridine-3-carboxamide] | 624 nM
37 | Cc1cc(-c2ncccc2-c2ccc3ncc(C(=O)OC[C@H](Cc4c[nH]c5ccccc45)NC(=O)OC(C)(C)C)n3c2)ccc1F [compound 614, (S)-2-((tert-Butoxycarbonyl)amino)-3-(1H-indol-3-yl)propyl 6-(2-(4-fluoro-3-methylphenyl)pyridin-3-yl)imidazo[1,2-a]pyridine-3-carboxylate] | 5560 nM
38 | Cc1cc(-c2ncccc2-c2ccc3ncc(C(=O)OC[C@@H](N)Cc4c[nH]c5ccccc45)n3c2)ccc1F [compound 615, (S)-2-Amino-3-(1H-indol-3-yl)propyl 6-(2-(4-fluoro-3-methylphenyl)pyridin-3-yl)imidazo[1,2-a]pyridine-3-carboxylate formic acid salt] | 2130 nM
